Molecules are shown by their SMILES.

The assay concerns A II-infused rat. The experiment in a line: A II-infused rat model (antihypertensive action). It is filed as in vivo. The following applies: 3 mg/kg id, average, four hours post-administration, anesthetized ganglion-blocked rats with A II infusion. The protocol:
In accordance with their ability to antagonize angiotensin II, the compounds of this invention show antihypertensive action in the following A II-infused rat model. Procedure: Rats are anesthetized with Dial-Urethane (0.60 mL/kg, ip) and the trachea cannulated with PR 240. Either one femoral artery and both femoral veins or the carotid artery and the corresponding jugular vein are cannulated with PE 50. If the jugular vein is cannulated, two cannulas are placed in the one vein. The initial portion of the duodenum (just distal to the stomach) is cannulated with PE 50 via a small midline incision. Arterial pressure and heart rate are measured from the arterial cannula. Ten to 15 min are allowed following surgery for stabilization of arterial pressure. Ganglion blockade is then produced by intravenous administration of mecamylamine at 3 mg/kg (1 mL/kg of a 3 mg/mL solution). Ganglion blockade causes a fall in arterial pressure of about 50 mmHg. Mecamylamine is given every 90 min throughout the remainder of the experiment. An A II infusion is then begun into the other venous cannula at 0.25 µg/kg min (at 9.6 µL/min). The A II infusion returns arterial pressure to or slightly above the control level. Once arterial pressure has stabilized with the A II infusion, baseline values for mean arterial pressure (MAP) and heart rate are taken. […]

For the molecule `Cc1nc(C)c2c(n1)N(Cc1ccc(-c3ccccc3-c3nnn[nH]3)cc1)C(=O)C2` [Example 1, 2,4-Dimethyl-5,7-dihydro-7-[[2'-(1H-tetrazol-5-yl)[1,1-bi-phenyl]-4-yl]methyl]-6H-pyrrolo[2,3-d]pyrimidin-6-one], the “lowered the A II dependent blood pressure” value is recorded as 41%.

For the origin of these results see patent EP0539086B1, “Condensed pyrimidine derivatives and their use as angiotensine II antagonists” (AMERICAN HOME PRODUCTS CORPORATION, priority 1991, dated 1993).
